{
  "source": "patent US7217735B1",
  "about": "“Methods and compositions for enhancing delivery of therapeutic agents to tissues” (priority 1999, dated 2007)",
  "key": {"microtubule": {"system": "microtubule", "conditions": "cited from earlier work"}, "[1]": {"system": "patient prostate tumors and PC3 xenograft tumors", "experiment": "Doxorubicin concentration versus distance from tumor periphery (FIG. 4)", "type": "in vitro ADME, human", "procedure": "Histocultures of tumors were incubated with 1, 5 or 20:M doxorubicin as described in Example 1. […] At 4, 12, 24, 36, 48, and 72 hours, histocultures were collected and processed as described in Example 1. The fluorescence emitted by doxorubicin was visualized using fluorescence microscopy. The excitation and emission wavelengths were 546 nm and 565 nm, respectively. Microscopic images were captured using a Charged Couple Device (CCD) camera and the captured images were analyzed using Optimas image analysis software (Silver spring, MD). The doxorubicin concentration in tissues was quantified using standard curves (each curve contained six data points), established as follows. Samples for the standard curves were prepared by applying known amounts of doxorubicin in solution to microscope sections of blank dog prostate tissue. […] The average fluorescence intensity per area were measured. Plots of the fluorescence readings against the applied doxorubicin concentrations in the standard curve samples provided the standard curves used to quantify the doxorubicin in the actual samples. […]\nFIG. 4 summarizes the drug concentration in tumor tissue, expressed as tissue-to-medium concentration ratio, as a function of the distance from the periphery of the tumor histocultures. […]"}, "[2]": {"system": "human prostate tumor histocultures", "conditions": "cited from earlier work"}, "PC3 xenograft tumor [3]": {"system": "PC3 xenograft tumor", "experiment": "Tumor cell density after doxorubicin treatment", "type": "cell-based, human", "conditions": "5 or 20 μM", "procedure": "The fractions of stromal tissue and tumor cells in each histoculture were measured using image analysis. Briefly, stromal and tumor cells of a 100× magnification field were outlined with the computer mouse. The sizes of each of these regions were determined via image analysis by counting the number of pixels in the region. […] Apoptotic cells were determined based on morphological changes in tumor cells such as chromatin condensation and margination, disappearance of nucleoli, formation of membrane blebs, apoptotic bodies and/or cell shrinkage (Kerr J F R et al. (1994) Cancer 73:2013). […] For each tumor piece, 50 to 100 images were processed, and the fractions of the tumor represented by tumor cells, stromal tissue, and interstitial space were calculated."}, "patient prostate tumors": {"system": "patient prostate tumors", "experiment": "Doxorubicin accumulation and penetration in tumor histocultures (fluorescence microscopy)", "type": "in vitro ADME, human", "conditions": "for Tissue concentration at 72 hr: in µM; for distribution of fluorescence signal: 5 or 20 μM", "procedure": "(§1) In this example, the penetration of doxorubicin into multilayer tissue was monitored using prostate tumor specimens obtained from human cancer patients and using the human prostate PC3 xenograft tumor maintained in athymic mice. Doxorubicin was monitored by fluorescence.\n(§2) Histocultures of tumors were incubated with 1, 5 or 20:M doxorubicin as described in Example 1. […] At 4, 12, 24, 36, 48, and 72 hours, histocultures were collected and processed as described in Example 1. The fluorescence emitted by doxorubicin was visualized using fluorescence microscopy. The excitation and emission wavelengths were 546 nm and 565 nm, respectively. Microscopic images were captured using a Charged Couple Device (CCD) camera and the captured images were analyzed using Optimas image analysis software (Silver spring, MD). The doxorubicin concentration in tissues was quantified using standard curves (each curve contained six data points), established as follows. Samples for the standard curves were prepared by applying known amounts of doxorubicin in solution to microscope sections of blank dog prostate tissue. The standard doxorubicin solutions (2:1) were pipetted on 10:m-thick blank tissue sections, and carefully spread over a surface area of approximately 1.5–2 cm^2. The standard slides were scanned using the same conditions as the samples. The average fluorescence intensity per area were measured. Plots of the fluorescence readings against the applied doxorubicin concentrations in the standard curve samples provided the standard curves used to quantify the doxorubicin in the actual samples. For the latter, at least three sections were used to obtain the mean value in one tumor, and at least three tumors were used to obtain the mean value at each time point.\n(§3) The rate of doxorubicin penetration into patient and PC3 xenograft tumors was monitored using fluorescence microscopy."}, "PC3 xenograft tumor [4]": {"system": "PC3 xenograft tumor", "experiment": "Doxorubicin accumulation and penetration in tumor histocultures (fluorescence microscopy)", "type": "in vitro ADME, human", "conditions": "for Tissue-to-medium concentration ratio at 72 hr / Tissue concentration at 72 hr: PC3 xenograft tumor; for Tissue concentration at 72 hr: in µM; for distribution of fluorescence signal: 5 or 20 μM", "procedure": "The androgen-independent human prostate PC3 cells were maintained as xenograft tumors in male nude mice according to the previously published procedures (Pretlow et al., 1993; Nagabhushan et al., 1996). Briefly, minced tumor tissue mixed with the same volume of Matrigel was implanted into both flanks of the nude mice at 0.3 ml per site. Tumors were harvested when they reached a size of 1 g at about 1.5 to 2 months after implantation.\nas §1, §2, §3"}},
  "data": [
    {"smiles": "CC(=O)O[C@H]1C(=O)[C@@]2(C)[C@H]([C@H](OC(=O)c3ccccc3)[C@]3(O)C[C@H](OC(=O)[C@H](O)[C@@H](NC(=O)c4ccccc4)c4ccccc4)C(C)=C1C3(C)C)[C@]1(OC(C)=O)CO[C@@H]1C[C@@H]2O", "note": "[7-epitaxol]", "values": [
      {"measurement": "microtubule binding affinity compared with paclitaxel", "setting": "microtubule", "value": "similar"}
    ]},
    {"smiles": "COc1cccc2c1C(=O)c1c(O)c3c(c(O)c1C2=O)C[C@@](O)(C(=O)CO)C[C@@H]3O[C@H]1C[C@H](N)[C@H](O)[C@H](C)O1", "note": "[doxorubicin]", "values": [
      {"measurement": "equilibrium between far end (325 μm) and periphery (75 μm) concentration", "setting": "[1]; 1 μM", "value": "did not reach equilibrium"},
      {"measurement": "time at which equilibrium between far end and periphery was attained", "setting": "[1]; 5 and 20 μM", "value": 36, "unit": "h"},
      {"measurement": "IC50", "setting": "[2]; human prostate tumor histocultures, read-out: IC50, inhibition of tumor cell growth", "value": 61, "unit": "nM"},
      {"measurement": "CC50", "setting": "[2]; human prostate tumor histocultures, read-out: LC50, tumor cell death", "value": 2100, "unit": "nM"},
      {"measurement": "concentration sufficient to produce 50% cell death", "setting": "[2]; patient prostate tumors", "value": "2.1 :M"},
      {"measurement": "concentration sufficient to produce 90% cell death", "setting": "[2]; patient prostate tumors", "value": "4.2 :M"},
      {"measurement": "concentration sufficient to produce 90% inhibition of tumor cell proliferation", "setting": "[2]; patient prostate tumors", "value": "0.4 :M"},
      {"measurement": "cell density in the periphery of the tumor", "setting": "PC3 xenograft tumor [3]", "value": "decreased with time"},
      {"measurement": "Tissue-to-medium concentration ratio at 72 hr", "setting": "patient prostate tumors; 1 μM in culture medium", "value": "29.2 ± 7.8"},
      {"measurement": "Tissue concentration at 72 hr", "setting": "patient prostate tumors; 1 μM in culture medium", "value": "29.2 ± 7.8"},
      {"measurement": "drug distribution", "setting": "patient prostate tumors; 1 μM, by 72 hr", "value": "distributed evenly throughout the patient tumors"},
      {"measurement": "Tissue-to-medium concentration ratio at 72 hr", "setting": "patient prostate tumors; 5 μM in culture medium", "value": "31.6 ± 14.2"},
      {"measurement": "Tissue concentration at 72 hr", "setting": "patient prostate tumors; 5 μM in culture medium", "value": "158 ± 70.9"},
      {"measurement": "Tissue-to-medium concentration ratio at 72 hr", "setting": "patient prostate tumors; 20 μM in culture medium", "value": "36.9 ± 26.5"},
      {"measurement": "Tissue concentration at 72 hr", "setting": "patient prostate tumors; 20 μM in culture medium", "value": "739 ± 531"},
      {"measurement": "distribution of fluorescence signal", "setting": "patient prostate tumors; after 24 hr", "value": "evenly distributed throughout the histoculture"},
      {"measurement": "distribution of fluorescence signal", "setting": "patient prostate tumors; first 12 hr", "value": "confined to the periphery"},
      {"measurement": "PC3 xenograft-to-patient tumor concentration ratio at 72 hr", "setting": "PC3 xenograft tumor [4]; 1 μM in culture medium", "value": 1.15},
      {"measurement": "PC3 xenograft-to-patient tumor concentration ratio at 72 hr", "setting": "PC3 xenograft tumor [4]; 5 μM in culture medium", "value": 1.35},
      {"measurement": "PC3 xenograft-to-patient tumor concentration ratio at 72 hr", "setting": "PC3 xenograft tumor [4]; 20 μM in culture medium", "value": 1.5},
      {"measurement": "Tissue-to-medium concentration ratio at 72 hr", "setting": "PC3 xenograft tumor [4]; 1 μM in culture medium", "value": "33.6 ± 3.9"},
      {"measurement": "Tissue concentration at 72 hr", "setting": "PC3 xenograft tumor [4]; 1 μM in culture medium", "value": "33.6 ± 3.9"},
      {"measurement": "Tissue-to-medium concentration ratio at 72 hr", "setting": "PC3 xenograft tumor [4]; 5 μM in culture medium", "value": "42.7 ± 3.3"},
      {"measurement": "Tissue concentration at 72 hr", "setting": "PC3 xenograft tumor [4]; 5 μM in culture medium", "value": "213 ± 16.4"},
      {"measurement": "Tissue-to-medium concentration ratio at 72 hr", "setting": "PC3 xenograft tumor [4]; 20 μM in culture medium", "value": "55.3 ± 9.6"},
      {"measurement": "Tissue concentration at 72 hr", "setting": "PC3 xenograft tumor [4]; 20 μM in culture medium", "value": "1107 ± 193"},
      {"measurement": "drug distribution", "setting": "PC3 xenograft tumor [4]; xenograft tumor, 1 μM, at 72 hr", "value": "remained confined to the periphery"},
      {"measurement": "distribution of fluorescence signal", "setting": "PC3 xenograft tumor [4]; xenograft tumor, after 36 hr", "value": "evenly distributed"},
      {"measurement": "distribution of fluorescence signal", "setting": "PC3 xenograft tumor [4]; xenograft tumor, first 24 hr", "value": "confined to the periphery"}
    ]}
  ]
}
